Reference: ChEMBL document CHEMBL1140791, “Design and identification of selective HER-2 sheddase inhibitors via P1' manipulation and unconventional P2' perturbations to induce a molecular metamorphosis” (Bioorg Med Chem Lett, 2008)
Calls of active or inactive are those of the source. The rule behind the calls is not given here.

What was measured:
[1] = biological target: T1, Disintegrin and metalloproteinase domain-containing protein 10 (Homo sapiens, UniProt O14672); assay: (§1) Inhibition of HER2 sheddase in BT474 cells by extracellular domain shedding assay; format: cell-based, BT-474
T1 sequence (O14672 whole entry): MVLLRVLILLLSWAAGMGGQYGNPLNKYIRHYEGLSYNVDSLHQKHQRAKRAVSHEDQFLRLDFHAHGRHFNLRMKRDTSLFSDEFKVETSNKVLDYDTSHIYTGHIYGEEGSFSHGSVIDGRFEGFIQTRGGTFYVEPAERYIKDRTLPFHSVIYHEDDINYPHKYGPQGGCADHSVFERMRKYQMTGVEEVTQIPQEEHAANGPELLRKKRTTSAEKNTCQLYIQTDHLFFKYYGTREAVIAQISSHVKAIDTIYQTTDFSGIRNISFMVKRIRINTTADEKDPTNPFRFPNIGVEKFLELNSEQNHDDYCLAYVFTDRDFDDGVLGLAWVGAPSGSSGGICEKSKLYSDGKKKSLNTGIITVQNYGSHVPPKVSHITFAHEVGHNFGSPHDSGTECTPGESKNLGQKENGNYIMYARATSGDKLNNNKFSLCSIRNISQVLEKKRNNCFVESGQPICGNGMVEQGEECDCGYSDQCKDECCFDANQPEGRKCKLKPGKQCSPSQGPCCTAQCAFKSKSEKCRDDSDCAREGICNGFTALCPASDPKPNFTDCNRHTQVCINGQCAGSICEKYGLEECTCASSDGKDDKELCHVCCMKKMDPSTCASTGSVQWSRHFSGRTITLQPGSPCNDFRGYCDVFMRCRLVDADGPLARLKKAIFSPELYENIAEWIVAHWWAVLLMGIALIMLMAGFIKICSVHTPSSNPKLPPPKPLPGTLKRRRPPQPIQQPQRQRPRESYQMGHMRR

[2] = biological target: T1, Disintegrin and metalloproteinase domain-containing protein 10; assay: Binding affinity to ADAM10
[3] = biological target: 72 kDa type IV collagenase (Homo sapiens, UniProt P08253); assay: Binding affinity to MMP2
Interstitial collagenase = biological target: T2, Interstitial collagenase (Homo sapiens, UniProt P03956); assay: Binding affinity to MMP1
T2 sequence (P03956 whole entry): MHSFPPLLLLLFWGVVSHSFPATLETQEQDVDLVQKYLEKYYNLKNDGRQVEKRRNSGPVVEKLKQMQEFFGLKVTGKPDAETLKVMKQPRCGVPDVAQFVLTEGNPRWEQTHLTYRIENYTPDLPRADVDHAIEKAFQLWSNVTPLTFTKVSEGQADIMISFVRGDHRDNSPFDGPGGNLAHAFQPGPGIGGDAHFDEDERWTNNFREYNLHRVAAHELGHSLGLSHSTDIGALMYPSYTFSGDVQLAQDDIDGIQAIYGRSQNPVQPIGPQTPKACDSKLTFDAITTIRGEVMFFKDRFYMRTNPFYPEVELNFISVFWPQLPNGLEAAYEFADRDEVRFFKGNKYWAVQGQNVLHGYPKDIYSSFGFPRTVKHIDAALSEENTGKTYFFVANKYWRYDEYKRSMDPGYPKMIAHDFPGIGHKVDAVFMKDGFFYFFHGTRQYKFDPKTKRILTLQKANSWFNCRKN

Stromelysin-1 = Stromelysin-1 (Homo sapiens, UniProt P08254); assay: Binding affinity to MMP3
[4] = biological target: Matrix metalloproteinase-9 (Homo sapiens, UniProt P14780); assay: Binding affinity to MMP9
[5] = biological target: T3, Disintegrin and metalloproteinase domain-containing protein 10 (Homo sapiens) (UniProt O14672); assay: as §1; format: cell-based; conditions: BT-474
T3 sequence (whole entry): T1 sequence (O14672 whole entry)

[6] = Selectivity for ADAM10 over MMP2
[7] = Selectivity for ADAM10 over MMP9
[8] = Selectivity for ADAM10 over MMP3
[9] = Selectivity for ADAM10 over MMP1
Plasma = assay: Protein binding in human plasma assessed as unbound fraction; format: ADME, cell-free
[10] = AUC (0 to 24 hrs) in mouse at 10 mg/kg, po; format: ADME, organism-based; design: time < 24 hr, dose 10 mg/kg, route oral; conditions: plasma
[11] = Cmax in mouse at 10 mg/kg, po; format: ADME, organism-based; design: dose 10 mg/kg, route oral; conditions: in vivo
[12] = Half life in mouse; format: ADME, organism-based; conditions: in vivo

Matrix metalloproteinase-9, sequence (P14780 whole entry, the tested form may be a part): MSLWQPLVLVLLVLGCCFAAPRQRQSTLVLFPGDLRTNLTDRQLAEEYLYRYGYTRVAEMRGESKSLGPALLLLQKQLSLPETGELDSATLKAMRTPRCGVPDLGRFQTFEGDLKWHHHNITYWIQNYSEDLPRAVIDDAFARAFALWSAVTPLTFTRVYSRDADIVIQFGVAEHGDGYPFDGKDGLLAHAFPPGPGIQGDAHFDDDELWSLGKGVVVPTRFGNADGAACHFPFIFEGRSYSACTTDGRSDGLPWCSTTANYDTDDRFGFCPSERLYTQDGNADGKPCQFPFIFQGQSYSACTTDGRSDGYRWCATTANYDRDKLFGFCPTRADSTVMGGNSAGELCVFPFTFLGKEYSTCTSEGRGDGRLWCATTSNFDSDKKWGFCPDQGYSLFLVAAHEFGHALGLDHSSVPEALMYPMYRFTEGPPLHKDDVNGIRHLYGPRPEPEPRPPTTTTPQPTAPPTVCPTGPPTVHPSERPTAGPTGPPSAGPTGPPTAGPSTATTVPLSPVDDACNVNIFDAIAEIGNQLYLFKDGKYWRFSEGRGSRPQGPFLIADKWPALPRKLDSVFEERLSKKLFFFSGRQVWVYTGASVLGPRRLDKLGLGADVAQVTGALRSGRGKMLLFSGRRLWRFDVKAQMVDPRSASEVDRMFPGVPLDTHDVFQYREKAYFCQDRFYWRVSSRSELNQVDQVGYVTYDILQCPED
Stromelysin-1, sequence (P08254 whole entry): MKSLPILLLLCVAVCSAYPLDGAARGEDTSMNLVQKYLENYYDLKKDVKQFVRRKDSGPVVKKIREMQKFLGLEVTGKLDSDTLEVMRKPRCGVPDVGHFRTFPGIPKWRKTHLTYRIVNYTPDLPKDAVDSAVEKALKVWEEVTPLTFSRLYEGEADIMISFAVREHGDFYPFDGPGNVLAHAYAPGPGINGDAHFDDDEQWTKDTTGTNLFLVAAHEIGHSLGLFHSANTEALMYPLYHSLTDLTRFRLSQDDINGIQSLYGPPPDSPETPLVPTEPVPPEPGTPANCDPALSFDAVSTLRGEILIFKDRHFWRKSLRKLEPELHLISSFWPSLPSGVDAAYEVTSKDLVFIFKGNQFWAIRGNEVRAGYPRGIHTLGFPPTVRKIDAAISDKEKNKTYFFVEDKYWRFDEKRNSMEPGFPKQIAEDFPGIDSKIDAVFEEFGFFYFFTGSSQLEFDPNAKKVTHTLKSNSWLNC
72 kDa type IV collagenase, sequence (P08253 whole entry): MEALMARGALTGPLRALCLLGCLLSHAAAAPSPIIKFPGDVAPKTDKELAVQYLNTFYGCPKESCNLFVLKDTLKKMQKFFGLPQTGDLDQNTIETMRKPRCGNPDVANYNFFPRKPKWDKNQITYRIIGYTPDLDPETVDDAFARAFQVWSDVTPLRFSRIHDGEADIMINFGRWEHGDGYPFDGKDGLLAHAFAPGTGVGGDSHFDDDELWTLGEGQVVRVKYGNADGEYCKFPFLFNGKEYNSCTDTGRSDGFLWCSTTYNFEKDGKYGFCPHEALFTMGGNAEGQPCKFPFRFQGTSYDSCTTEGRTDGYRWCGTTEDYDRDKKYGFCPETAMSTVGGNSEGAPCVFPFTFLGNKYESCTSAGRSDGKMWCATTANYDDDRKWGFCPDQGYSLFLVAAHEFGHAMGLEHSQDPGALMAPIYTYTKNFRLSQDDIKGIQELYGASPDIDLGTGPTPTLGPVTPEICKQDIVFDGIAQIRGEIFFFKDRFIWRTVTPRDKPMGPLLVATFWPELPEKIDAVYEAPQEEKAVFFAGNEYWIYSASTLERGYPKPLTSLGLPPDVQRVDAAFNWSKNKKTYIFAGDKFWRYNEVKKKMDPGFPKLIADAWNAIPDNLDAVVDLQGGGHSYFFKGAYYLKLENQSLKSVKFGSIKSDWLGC

Structure (SMILES) | IC50 [1] | IC50 [2] | IC50 [3] | IC50 (Interstitial collagenase) | IC50 (Stromelysin-1) | IC50 [4] | other results
O=C(NO)[C@H]1CC2(CC2)CN[C@@H]1C(=O)N1CCN(c2cccc(Cl)c2)CC1 | 42 nM | 14 nM | 32 nM |  |  |  | 
CC(C)c1cc(C2=CCN(C(=O)[C@H]3NCC4(CC4)C[C@@H]3C(=O)NO)CC2)ccc1C#N | 902 nM | 154 nM | 2500 nM |  |  |  | 
O=C(NO)[C@H]1CC2(CC2)CN(C(=O)OC2CCOCC2)[C@@H]1C(=O)N1CCN(c2ccccc2)CC1 | 26 nM | 37 nM | 106 nM | > 5000 nM | 4000 nM | 2620 nM | 
CC(C)COC(=O)N1CC2(CC2)C[C@H](C(=O)NO)[C@H]1C(=O)N1CC=C(c2ccccc2)CC1 | 150 nM | 19 nM | 35 nM | > 5000 nM | 2600 nM | 451 nM | 
O=C(NO)[C@H]1CC2(CC2)CN[C@@H]1C(=O)N1CC=C(c2cc(F)cc(F)c2)CC1 | 24 nM | 15 nM | 14 nM | > 5000 nM | > 5000 nM | 916 nM | 
CC(C)c1cccc(N2CCN(C(=O)[C@H]3NCC4(CC4)C[C@@H]3C(=O)NO)CC2)c1 |  | 1100 nM | > 5000 nM | > 5000 nM |  |  | Activity [5]: inactive
COC(=O)N1CC2(CC2)C[C@H](C(=O)NO)[C@H]1C(=O)N1CCC(c2ccccc2)C1 (some centres undefined) | 289 nM | 81 nM | > 5000 nM |  |  |  | 
O=C(NO)[C@H]1CC2(CC2)CN[C@@H]1C(=O)N1CCC(c2ccccc2)C1 (some centres undefined) |  |  | 960 nM | > 5000 nM | > 3000 nM | > 3000 nM | 
O=C(NO)[C@H]1CC2(CC2)CN[C@@H]1C(=O)N1CC=C(c2cc(Cl)cc(Cl)c2)CC1 |  | 99 nM | 5000 nM |  |  |  | Activity [5]: inactive
O=C(NO)[C@H]1CC2(CC2)CN[C@@H]1C(=O)N1CC=C(c2cccc(C3CC3)c2)CC1 |  | 48 nM | 24 nM |  |  |  | 
CC(=O)N1CC2(CC2)C[C@H](C(=O)NO)[C@H]1C(=O)N1CC=C(c2ccccc2)CC1 | 72 nM | 40 nM | 50 nM | > 5000 nM | > 5000 nM | 160 nM | 
CS(=O)(=O)N1CC2(CC2)C[C@H](C(=O)NO)[C@H]1C(=O)N1CCN(c2ccccc2)CC1 | 45 nM | 27 nM | 86 nM | > 5000 nM | > 5000 nM | 1500 nM | 
Cc1cccc(C2CCN(C(=O)[C@H]3NCC4(CC4)C[C@@H]3C(=O)NO)CC2)c1 | 689 nM | 194 nM | 391 nM | > 5000 nM | > 5000 nM | 604 nM | 
O=C(NO)[C@H]1CC2(CC2)CN[C@@H]1C(=O)N1CC=C(c2ccccc2)C1 | 13 nM |  |  |  |  |  | 
Cc1cc(C2=CCN(C(=O)[C@H]3NCC4(CC4)C[C@@H]3C(=O)NO)CC2)cc(C)c1C#N | 129 nM | 28 nM | 159 nM | > 5000 nM | 3500 nM | > 5000 nM | 
O=C(NO)[C@H]1CC2(CC2)CN[C@@H]1C(=O)N1CCC(c2ccccc2)CC1 | 137 nM |  |  |  |  |  | 
Cc1cccc(N2CCN(C(=O)[C@H]3NCC4(CC4)C[C@@H]3C(=O)NO)CC2)c1 | 184 nM | 187 nM | 63 nM | > 5000 nM | > 1000 nM | 1270 nM | 
CS(=O)(=O)N1CC2(CC2)C[C@H](C(=O)NO)[C@H]1C(=O)N1CC=C(c2ccccc2)CC1 | 93 nM | 51 nM | 53 nM | > 5000 nM | > 5000 nM | 677 nM | 
O=C(NO)[C@H]1CC2(CC2)CN(C(=O)OCc2ccccc2)[C@@H]1C(=O)N1CC=C(c2ccccc2)CC1 | 431 nM | 34 nM | 37 nM | > 5000 nM | 1670 nM | 309 nM | 
Cc1cc(N2CCN(C(=O)[C@H]3NCC4(CC4)C[C@@H]3C(=O)NO)CC2)ccc1C#N | 594 nM | 38 nM | < 5 nM |  |  |  | 
Cc1cccc(C2=CCN(C(=O)[C@H]3NCC4(CC4)C[C@@H]3C(=O)NO)CC2)c1 | 42 nM | 25 nM | 13 nM | 1890 nM | 359 nM | 111 nM | 
COc1cccc(C2=CCN(C(=O)[C@H]3NCC4(CC4)C[C@@H]3C(=O)NO)CC2)c1 | 194 nM | 40 nM | 50 nM | > 5000 nM |  | 110 nM | 
COC(=O)N1CC2(CC2)C[C@H](C(=O)NO)[C@H]1C(=O)N1CCC(c2ccccc2)CC1 | 169 nM | 19 nM | 472 nM |  |  |  | 
CC(C)c1cccc(C2CCN(C(=O)[C@H]3NCC4(CC4)C[C@@H]3C(=O)NO)CC2)c1 | 139 nM | 16 nM | 1390 nM |  | > 5000 nM |  | 
CCc1cccc(C2=CCN(C(=O)[C@H]3NCC4(CC4)C[C@@H]3C(=O)NO)CC2)c1 | 240 nM | 33 nM | 21 nM | > 5000 nM |  | 190 nM | 
Cc1cc(C)cc(C2=CCN(C(=O)[C@H]3NCC4(CC4)C[C@@H]3C(=O)NO)CC2)c1 | 86 nM | 85 nM | 433 nM | > 5000 nM | > 5000 nM | > 5000 nM | 
CC(C)c1cccc(C2=CCN(C(=O)[C@H]3NCC4(CC4)C[C@@H]3C(=O)NO)CC2)c1 | 229 nM | 73 nM | 1100 nM | > 5000 nM | 5000 nM | 2500 nM | Ratio IC50 [6]: > 15; Ratio IC50 [7]: 10; Ratio IC50 [8]: 2
COC(=O)N1CC2(CC2)C[C@H](C(=O)NO)[C@H]1C(=O)N1CC=C(c2ccccc2)C1 | 34 nM | 26 nM | 488 nM | > 5000 nM | > 5000 nM | 3050 nM | Ratio IC50 [6]: 37; Ratio IC50 [7]: 40; Ratio IC50 [8]: 11; Ratio IC50 [9]: 2; PPB (Plasma): 34%; AUC(0-t) at 24 h [10]: 2.8 µM·h; Cmax [11]: 3000 nM; half-life [12]: 1.8 h
